Patent publication US12150995B2, “IRAK degraders and uses thereof” (Kymera Therapeutics, Inc., priority 2020, dated 2024)

Target: T1, IRAK4 (Homo sapiens, UniProt Q9NWZ3)
T1 construct: endogenous in cells; host or cells: OCI-LY10
T1 sequence (Q9NWZ3 1-460): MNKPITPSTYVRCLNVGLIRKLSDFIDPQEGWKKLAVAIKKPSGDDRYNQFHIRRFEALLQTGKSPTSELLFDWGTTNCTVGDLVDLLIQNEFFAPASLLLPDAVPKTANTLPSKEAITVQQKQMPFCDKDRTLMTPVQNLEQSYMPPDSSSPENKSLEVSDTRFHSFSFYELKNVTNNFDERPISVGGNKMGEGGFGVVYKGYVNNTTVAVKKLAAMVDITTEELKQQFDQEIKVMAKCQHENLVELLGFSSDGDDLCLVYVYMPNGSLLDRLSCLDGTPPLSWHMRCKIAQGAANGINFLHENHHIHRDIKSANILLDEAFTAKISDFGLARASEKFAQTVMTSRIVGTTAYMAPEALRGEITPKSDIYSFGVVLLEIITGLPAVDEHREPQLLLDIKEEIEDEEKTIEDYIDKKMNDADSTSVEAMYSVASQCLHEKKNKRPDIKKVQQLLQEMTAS
Assay: IRAK4 MSD Degradation in OCI-LY10
Format: cell-based
Conditions: OCI-LY10 cells, Meso Scale Discovery, incubated 4 to 24 hours
Outline: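 OCI-LY10 cells (300,000/well) exposed to an 8-point 1:3 series from a top concentration of 1 to 10 μM for 4 to 24 h at 37 °C. IRAK4 remaining in RIPA lysates quantified by MSD sandwich immunoassay; DC50 from a three-parameter logistic fit.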

Row | SMILES | DC50
1 | COc1ccc2c(c1C1CCN(C[C@H]3C[C@H](n4cc5cc(NC(=O)c6cccc(C(F)(F)F)n6)ccc5n4)C3)CC1)n(C)c(=O)n2C1CCC(=O)NC1=O (stereo partly shown) [I-152] | 10 to 50 nM
2 | Cc1cc2nn([C@H]3CC[C@H](CN4CCN(c5cccc6c5n(C5CC5)c(=O)n6C5CCC(=O)NC5=O)CC4)CC3)cc2cc1NC(=O)c1cccc(C(F)(F)F)n1 (stereo partly shown) [I-304] | 10 to 50 nM
3 | Cn1c(=O)n(C2CCC(=O)NC2=O)c2cccc(C3CCN(C[C@H]4CC[C@H](c5cc6cc(NC(=O)c7cccc(C(F)(F)F)n7)ccn6n5)CC4)CC3)c21 (stereo partly shown) [I-242] | < 10 nM
4 | O=C1CCC(N2C(=O)c3cccc(NCCC4CC5(C4)CN(C[C@H]4CC[C@H](n6cc7cc(NC(=O)c8cccc(C(F)(F)F)n8)c(OC8CC8)cc7n6)CC4)C5)c3C2=O)C(=O)N1 (stereo partly shown) [I-2] | > 200 nM
5 | CC(C)Nc1cc(-n2ccc3cc(C#N)cnc32)ncc1-c1cn([C@H]2CC[C@H](CN3CCN(c4cccc5c4n(C)c(=O)n5C4CCC(=O)NC4=O)CC3)CC2)nn1 (stereo partly shown) [I-231] | 10 to 50 nM
6 | Cn1c(=O)n(C2CCC(=O)NC2=O)c2cccc(C3CCN(C[C@H]4CC[C@H](n5cc6cc(NC(=O)c7cncc(C#N)c7)c(N7C[C@H]8C[C@@H]7CO8)cc6n5)CC4)CC3)c21 (stereo partly shown) [I-212] | > 200 nM
7 | CC(C)Nc1cc(-n2ccc3cc(F)cnc32)ncc1C(=O)N[C@H]1CC[C@H](CN2CCN(c3ccc4c(c3)n(C)c(=O)n4C3CCC(=O)NC3=O)CC2)CC1 (stereo partly shown) [I-267] | > 200 nM
8 | CC(C)(O)c1cc2nn([C@H]3CC[C@H](CN4CCC(c5ccc6c(N7CCC(=O)NC7=O)cncc6c5)CC4)CC3)cc2cc1NC(=O)c1cccc(C(F)(F)F)n1 [I-64] | < 10 nM
9 | COc1cc2nn([C@H]3CC[C@H](CN(C)[C@H]4CC[C@H](c5cccc6c5n(C)c(=O)n6C5CCC(=O)NC5=O)CC4)CC3)cc2cc1NC(=O)c1cccc(C(F)(F)F)n1 (stereo partly shown) [I-5, N-[2-[4-[[[4-[1-(2,6-dioxo-3-piperidyl)-3-methyl-2-oxo-benzimidazol-4-yl]cyclohexyl]-methyl-amino]methyl]cyclohexyl]-6-methoxy-indazol-5-yl]-6-(trifluoromethyl)pyridine-2-carboxamide] | < 10 nM
10 | COc1cc2nn([C@H]3CC[C@H](CN4CCC(c5ccc6c(c5Cl)n(C)c(=O)n6C5CCC(=O)NC5=O)CC4)CC3)cc2cc1NC(=O)c1cccc(C(F)(F)F)n1 (stereo partly shown) [I-177] | < 10 nM
11 | Cn1c(=O)n(C2CCC(=O)NC2=O)c2cccc(C3CCN(C[C@H]4CC[C@H](N5Cc6cc(NC(=O)c7cccc(C(F)(F)F)n7)c(N7C[C@H]8C[C@@H]7CO8)cc6C5=O)CC4)CC3)c21 (stereo partly shown) [I-29] | < 10 nM
12 | CC(C)Nc1cc(-n2ccc3cc(C#N)cnc32)ncc1C(=O)N[C@H]1CC[C@H](CN2CCC(c3cccc4c(N5CCC(=O)NC5=O)cncc34)CC2)CC1 [I-190] | < 10 nM
13 | COc1cc2nn([C@H]3CC[C@H](CN4CCC(c5cccc6c5n(C)c(=O)n6C5CCC(=O)NC5=O)CC4)CC3)cc2cc1NC(=O)c1nc(C(F)(F)F)cs1 (stereo partly shown) [I-175] | < 10 nM
14 | CC(C)Nc1cc(-n2ccc3cc(C#N)cnc32)ncc1-c1cn([C@H]2CC[C@H](CN3CCC(c4cccc5c(N6CCC(=O)NC6=O)cncc45)CC3)CC2)nn1 [I-329] | < 10 nM
15 | COc1cncc(C(=O)Nc2cc3sc([C@H]4CC[C@H](CN(C)CCCCNc5cccc6c5C(=O)N(C5CCC(=O)NC5=O)C6=O)CC4)nc3cc2OC)c1 (stereo partly shown) [I-449] | > 200 nM
16 | Cn1c(=O)n(C2CCC(=O)NC2=O)c2cccc(N3CCN(C[C@H]4CC[C@H](n5cc6cc7nc(-c8cccc(C(F)(F)F)n8)oc(=O)c7cc6n5)CC4)CC3)c21 (stereo partly shown) [I-406, 3-[3-methyl-2-oxo-4-[4-[[4-[8-oxo-6-[6-(trifluoromethyl)-2-pyridyl]pyrazolo[3,4-g] [3,1]benzoxazin-2-yl]cyclohexyl]methyl]piperazin-1-yl]benzimidazol-1-yl]piperidine-2,6-dione] | 10 to 50 nM
17 | Cn1c(=O)n(C2CCC(=O)NC2=O)c2cccc(N3CC4CC(C3)N4C[C@H]3CC[C@H](n4cc5cc(NC(=O)c6cccc(C(F)(F)F)n6)c(C(C)(C)O)cc5n4)CC3)c21 (stereo partly shown) [I-232] | < 10 nM
18 | Cc1cccc(C(=O)Nc2cc3sc([C@H]4CC[C@H](CN5C[C@H]6C[C@@H]5CN6CCNc5cccc6c5C(=O)N(C5CCC(=O)NC5=O)C6=O)CC4)nc3cc2C(C)(C)O)n1 (stereo partly shown) [I-475] | < 10 nM
19 | COc1cc2nn([C@H]3CC[C@H](CN4CCC(c5ccc6c(N7CCC(=O)NC7=O)cncc6c5)CC4)CC3)cc2cc1NC(=O)c1cccc(C(F)(F)F)n1 [I-322] | < 10 nM
20 | CCc1cc2nn([C@H]3CC[C@H](CN4CCN(c5cccc6c5n(C)c(=O)n6C5CCC(=O)NC5=O)CC4)CC3)cc2cc1NC(=O)c1cccc(C(F)(F)F)n1 (stereo partly shown) [I-378] | < 10 nM

Row | SMILES | DC50
21 | COc1ccc2c(c1C1CCN(C[C@H]3CC[C@H](n4cc5cc(NC(=O)c6cccc(C(F)(F)F)n6)c(C#N)cc5n4)CC3)CC1)n(C)c(=O)n2C1CCC(=O)NC1=O (stereo partly shown) [I-205] | < 10 nM
22 | Cn1c(=O)n(C2CCC(=O)NC2=O)c2ccc(F)c(C3CCN(C[C@H]4C[C@H](n5cc6cc(NC(=O)c7cccc(C(F)(F)F)n7)ncc6n5)C4)CC3)c21 (stereo partly shown) [I-147] | 50 to 100 nM
23 | O=C1CCN(c2cncc3c(C4CCN(C[C@H]5CC[C@H](n6cc7cc(NC(=O)c8cccc(C(F)(F)F)n8)ccc7n6)CC5)CC4)cccc23)C(=O)N1 [I-68] | 10 to 50 nM
24 | CCOc1cc2nn([C@H]3CC[C@H](CN4CCN(c5cccc6c5n(C)c(=O)n6C5CCC(=O)NC5=O)CC4)CC3)cc2cc1NC(=O)c1cccc(C(F)(F)F)n1 (stereo partly shown) [I-294] | 10 to 50 nM
25 | COc1cc2nn([C@H]3C[C@H](CN4CCC(c5c(Cl)ccc6c5n(C)c(=O)n6C5CCC(=O)NC5=O)CC4)C3)cc2cc1NC(=O)c1cccc(C(F)(F)F)n1 (stereo partly shown) [I-87, N-[2-[3-[[4-[5-chloro-1-(2,6-dioxo-3-piperidyl)-3-methyl-2-oxo-benzimidazol-4-yl]-1-piperidyl]methyl]cyclobutyl]-6-methoxy-indazol-5-yl]-6-(trifluoromethyl)pyridine-2-carboxamide] | < 10 nM
26 | O=C1CCN(c2cncc3cc(N4CCN(C[C@H]5CC[C@H](n6cc7cc(NC(=O)c8cccc(C(F)(F)F)n8)ccc7n6)CC5)CC4)ccc23)C(=O)N1 [I-161] | > 200 nM
27 | Cn1c(=O)n(C2CCC(=O)NC2=O)c2cccc(N3CCN(C[C@H]4CC[C@H](n5cc6cc(NC(=O)c7cccc(C(F)(F)F)n7)c(F)cc6n5)CC4)CC3)c21 (stereo partly shown) [I-359] | < 10 nM
28 | Cn1c(=O)n(C2CCC(=O)NC2=O)c2cccc(C3CCN(C[C@H]4CC[C@H](n5cc6cc(NC(=O)c7cnccn7)c(F)cc6n5)CC4)CC3)c21 (stereo partly shown) [I-49] | > 200 nM
29 | COc1cc2nn([C@H]3CC[C@H](CN4CCC(c5c(C)ccc6c5n(C)c(=O)n6C5CCC(=O)NC5=O)CC4)CC3)cc2cc1NC(=O)c1cncc(C#N)c1 (stereo partly shown) [I-109] | < 10 nM
30 | O=C1CCN(c2cncc3c(N4CCN(C[C@H]5CC[C@H](n6cc7cc(NC(=O)c8cccc(C(F)(F)F)n8)c(Cl)cc7n6)CC5)CC4)cccc23)C(=O)N1 [I-358] | 10 to 50 nM
31 | Cn1c(=O)n(C2CCC(=O)NC2=O)c2cccc(C3CCN(C[C@H]4C[C@H](n5cc6cc(NC(=O)c7cccc(C(F)(F)F)n7)ccc6n5)C4)CC3)c21 (stereo partly shown) [I-140] | 100 to 200 nM
32 | CC(C)Nc1cc(-n2ccc3cc(F)cnc32)ncc1C(=O)N[C@H]1CC[C@H](CN2CCN(c3cccc4c3n(C)c(=O)n4C3CCC(=O)NC3=O)CC2)CC1 (stereo partly shown) [I-290] | 10 to 50 nM
33 | Cc1nc(C(=O)Nc2cc3cn([C@H]4CC[C@H](CN(C)C5CCN(c6cccc7c6n(C)c(=O)n7C6CCC(=O)N(C)C6=O)CC5)CC4)nc3cc2C(C)(C)O)co1 (stereo partly shown) [I-61] | > 200 nM
34 | Cn1c(=O)n(C2CCC(=O)NC2=O)c2cccc(C3CCN(C[C@H]4CC[C@H](n5cc6cc(NC(=O)c7cccc(C(F)(F)F)n7)cc(F)c6n5)CC4)CC3)c21 (stereo partly shown) [I-240] | < 10 nM
35 | CC(C)Nc1cc(-c2ccc3cc(C#N)cnn23)ncc1C(=O)N[C@H]1CC[C@H](CN2CCC(c3cccc4c(N5CCC(=O)NC5=O)cncc34)CC2)CC1 [I-184] | < 10 nM
36 | COc1cc2nc([C@H]3CC[C@H](CN(C)CCCCNc4cccc5c4C(=O)N(C4CCC(=O)NC4=O)C5=O)CC3)sc2cc1NC(=O)c1cncc(Cl)c1 (stereo partly shown) [I-480] | > 200 nM
37 | COc1cc2nn([C@H]3C[C@H](CN4CC(c5cccc6c5n(C)c(=O)n6C5CCC(=O)NC5=O)C4)C3)cc2cc1NC(=O)c1cccc(C(F)(F)F)n1 (stereo partly shown) [I-46, N-[2-[3-[[3-[1-(2,6-dioxo-3-piperidyl)-3-methyl-2-oxo-benzimidazol-4-yl]azetidin-1-yl]methyl]cyclobutyl]-6-methoxy-indazol-5-yl]-6-(trifluoromethyl)pyridine-2-carboxamide] | 10 to 50 nM
38 | COc1cc2nn([C@H]3CC[C@@H](CN4CC5(CC(CCNc6cccc7c6C(=O)N(C6CCC(=O)NC6=O)C7=O)C5)C4)CC3)cc2cc1NC(=O)c1cccc(C(C)(F)F)n1 (stereo partly shown) [I-11, 6-(1,1-Difluoroethyl)-N-[2-[4-[[6-[2-[[2-(2,6-dioxo-3-piperidyl)-1,3-dioxo-isoindolin-4-yl]amino]ethyl]-2-azaspiro[3.3]heptan-2-yl]methyl]cyclohexyl]-6-methoxy-indazol-5-yl]pyridine-2-carboxamide] | 50 to 100 nM
39 | CC(C)Nc1cc(-c2ccc3cc(C#N)cnn23)ncc1C(=O)N[C@H]1CC[C@H](CN2CCC(OCC#Cc3cccc4c3n(C)c(=O)n4C3CCC(=O)NC3=O)CC2)CC1 (stereo partly shown) [I-199] | 10 to 50 nM
40 | COc1cc2nn([C@H]3CC[C@H](CN4CCC(c5c(C)ccc6c5n(C)c(=O)n6C5CCC(=O)NC5=O)CC4)CC3)cc2cc1NC(=O)c1cccc(C(F)(F)F)n1 (stereo partly shown) [I-39] | < 10 nM
